Assay results published in the NIST ThermoML archive (doi:10.1021/je600568w).

What was measured:
[1] = 101 kPa, Liquid; for viscosity: Capillary tube (Ostwald / Ubbelohde) method
[2] = xn = mol fraction of the nth substance listed; conditions: 101 kPa, Liquid; for viscosity: Capillary tube (Ostwald / Ubbelohde) method

CCOC(=O)C(C)O (racemic) [DL-ethyl lactate]
[1]
Conditions	mass density [kg/m3]	viscosity [mPa·s]
298.15 K	1029.1	2.398
308.15 K	1018.7	1.863
318.15 K	1007.5	1.494

C=C(C)C(=O)OCCO [2-hydroxyethyl 2-methyl-2-propenoate]
[1]
Conditions	mass density [kg/m3]	viscosity [mPa·s]
298.15 K	1067.1	5.784
308.15 K	1057.7	4.194
318.15 K	1048.6	3.181

C=C(C)C(=O)OCCO [2-hydroxyethyl 2-methyl-2-propenoate] + CCOC(=O)C(C)O
[2]
Conditions	mass density, 298.15 K [kg/m3]	mass density, 308.15 K [kg/m3]	mass density, 318.15 K [kg/m3]	viscosity, 298.15 K [mPa·s]	viscosity, 308.15 K [mPa·s]	viscosity, 318.15 K [mPa·s]
x2 = 0	1067.1	1057.7	1048.6	5.784	4.194	3.181
x2 = 0.1	1063.9	1054.7	1045.6	5.23	3.833	2.938
x2 = 0.2	1060.6	1051.4	1042.2	4.75	3.513	2.71
x2 = 0.3	1057.1	1047.9	1038.5	4.36	3.215	2.493
x2 = 0.4	1053.5	1044.3	1034.6	3.989	2.975	2.311
x2 = 0.5	1049.8	1040.4	1030.6	3.663	2.742	2.141
x2 = 0.6	1045.9	1036.4	1026.4	3.343	2.526	1.985
x2 = 0.7	1041.8	1032.2	1022	3.041	2.323	1.834
x2 = 0.8	1037.7	1027.9	1017.5	2.767	2.127	1.689
x2 = 0.9	1033.4	1023.4	1012.8	2.524	1.949	1.556

C=C(C)C(=O)O [2-methyl-2-propenoic acid]
[1]
Conditions	mass density [kg/m3]	viscosity [mPa·s]
298.15 K	1009.5	1.267
308.15 K	999.4	1.078
318.15 K	989.2	0.945

C=C(C)C(=O)O [2-methyl-2-propenoic acid] + CCOC(=O)C(C)O
[2]
Conditions	mass density, 298.15 K [kg/m3]	mass density, 308.15 K [kg/m3]	mass density, 318.15 K [kg/m3]	viscosity, 298.15 K [mPa·s]	viscosity, 308.15 K [mPa·s]	viscosity, 318.15 K [mPa·s]
x2 = 0	1009.5	999.4	989.2	1.267	1.078	0.945
x2 = 0.1	1012.1	1002	991.7	1.422	1.19	1.02
x2 = 0.2	1014.6	1004.6	994.5	1.66	1.368	1.154
x2 = 0.3	1017	1007.4	997.3	1.933	1.567	1.306
x2 = 0.3999	1019.8	1010.2	999.9	2.181	1.742	1.43
x2 = 0.5	1022.5	1012.7	1002.2	2.378	1.87	1.52
x2 = 0.6	1024.7	1014.8	1004.2	2.465	1.929	1.551
x2 = 0.6999	1026.5	1016.5	1005.8	2.532	1.967	1.579
x2 = 0.8	1027.9	1017.8	1007.2	2.539	1.962	1.567
x2 = 0.9001	1028.7	1018.6	1008.2	2.471	1.907	1.526

CCOC(=O)C(C)O (stereo not drawn) [DL-ethyl lactate] + C=C(C)C(=O)O
[2], x1 = 1
Conditions	mass density [kg/m3]	viscosity [mPa·s]
298.15 K	1029.1	2.398
308.15 K	1018.7	1.863
318.15 K	1007.5	1.494

CCOC(=O)C(C)O (stereo not drawn) [DL-ethyl lactate] + C=C(C)C(=O)OCCO
[2], x1 = 1
Conditions	mass density [kg/m3]	viscosity [mPa·s]
298.15 K	1029.1	2.398
308.15 K	1018.7	1.863
318.15 K	1007.5	1.494

CCOC(=O)C(C)O (stereo not drawn) [DL-ethyl lactate] + C=C(C)C(=O)OCc1ccccc1
[2], x1 = 1
Conditions	mass density [kg/m3]	viscosity [mPa·s]
298.15 K	1029.1	2.398
308.15 K	1018.7	1.863
318.15 K	1007.5	1.494

C=C(C)C(=O)OCc1ccccc1 [benzyl methacrylate]
[1]
Conditions	mass density [kg/m3]	viscosity [mPa·s]
298.15 K	1034.7	2.302
308.15 K	1025.8	1.885
318.15 K	1017	1.58

C=C(C)C(=O)OCc1ccccc1 [benzyl methacrylate] + CCOC(=O)C(C)O
[2]
Conditions	mass density, 298.15 K [kg/m3]	mass density, 308.15 K [kg/m3]	mass density, 318.15 K [kg/m3]	viscosity, 298.15 K [mPa·s]	viscosity, 308.15 K [mPa·s]	viscosity, 318.15 K [mPa·s]
x2 = 0	1034.7	1025.8	1017	2.302	1.885	1.58
x2 = 0.1	1033.7	1024.3	1015.1	2.219	1.832	1.53
x2 = 0.1999	1032.7	1023.3	1013.9	2.166	1.8	1.493
x2 = 0.3	1032.1	1022.6	1012.9	2.153	1.77	1.458
x2 = 0.4	1031.6	1021.9	1012.1	2.149	1.753	1.437
x2 = 0.5	1031.1	1021.2	1011.2	2.161	1.749	1.426
x2 = 0.6	1030.7	1020.6	1010.4	2.179	1.753	1.426
x2 = 0.7	1030.2	1020	1009.5	2.209	1.761	1.431
x2 = 0.7999	1029.8	1019.4	1008.7	2.25	1.782	1.447
x2 = 0.9	1029.4	1018.9	1008	2.303	1.807	1.464
